Experimental data from patent US11771765B2, “Light augmented treatment method” (The Procter & Gamble Company, priority 2019, dated 2023).
Read-outs that look alike come from different tables or passages of the source.

Legend:
S. cerevisiae BY4741 = settings: for 17 h growth: YNB Ethanol
Experimental: (§1) Cells are grown in the medium of choice, generally one requiring respiration. In the case of Malassezia furfur that medium is modified Dixon medium (mDixon) (per one liter: 36 g malt extract (Difco 0186-17), 20 g ox bile (provided by American Laboratories, Inc., of Omaha, Nebraska, as Lot No. 03130792), 10 ml Tween 40 (Aldrich 27435-6), 6 g peptone (Difco 0118-17), 2 ml oleic acid (Baker 2114-01), and 2 ml glycerol (Sigma G-7893)). [Candida and YPG, Saccharomyces and YNB (without amino acids) to which we added 40 μg/ml each of uracil, histidine, and methionine plus 130 μg/ml leucine and 2% ethanol and 0.1% yeast extract.] Conventional medium may also be used for other microbials. Starting cultures are prepared by diluting a fresh overnight culture that is out of log phase 1:100 and incubating with shaking at 31° C. in a 250 mL shake flask (Corning, 431144) with 20 mL medium shaking at 200-250 rpm for about 3 hours to ensure the cells had returned to growth phase. At this time, the test agent is added to the flasks to afford the final concentration for testing. The cells are cultured for 1 hour with the test agent. At this time, the cells typically have an OD at 600 nm in the range of 0.25 to 0.8. Generally, we isolate 2.5 OD*mLs of cells calculated as desired OD*mLs divided by the OD600 of the cells. These media samples are centrifuged (Beckman Coulter Allegra™ 6KR centrifuge) 10 minutes at RT at 3200 rpm to pellet the cells. The supernatant is poured off and the tubes are set upside down on a folded paper towel to drain off the remains of media. Two and one half milliliters of PBS (Gibco, pH 7.4, without magnesium chloride or calcium chloride, 14190-144) is added and the cells resuspended. One mL of cells is transferred to each of two 12-well plates (Falcon, polystyrene, 353043). One plate is stored in the dark and the other is exposed to the light with the plate cover on the plate. […] When the light exposure is completed, the samples are mixed by slowly vortexing or pipetting and 0.65 mL of each sample is transferred to 13 mL of medium for overnight growth at 31° C. with shaking. The following morning, typically 18 hours later, the ODs at 600 nm are determined. Successful materials are those that show at least a 50% reduction in growth after light exposure relative to a dark sample.
S. cerevisiae is exposed to light from LED flashlights of the indicated wavelength as well as a painter's light/worklight, commonly found at a hardware store, which provides a broad spectrum of wavelengths of light. Yeast has been pretreated as indicated, prior to light exposure.

M. furfur = M. furfur growth after 20 min treatment, then 409 nm light or dark (Table 2); type: cell-based, Malassezia furfur
Experimental: as §1
M. furfur is incubated for twenty minutes with the indicated treatment. A cell pellet is collected after centrifugation so that most of the anti-fungal materials is expected to have been removed. The cell pellet is suspended in PBS and either treated with light (409 nm, 1100 foot candles) for ten minutes or stored in the dark for ten minutes. Samples are then diluted into mDixon with subsequent growth indicated by OD 600 nm.

C. albicans cells = experiment: Candida albicans spot plating after Piroctone Olamine and 409 nm light (Table 4); type: cell-based; parameters: key to spot plated growth (score): +: a continuous fungal lawn; +/−: a lawn with breaks allowing the agar to show; −: 0 to 5 colonies
Experimental: Potentiation of Piroctone Olamine by light exposure is also observed in Candida albicans. […] Cells are then diluted as indicated in the left column, and spot plated. Resulting growth is then scored, as explained above.

[1] = 8 ppm 20 min, Light 409 nm, 1100 foot candles, 10 min
[2] = 16 ppm 20 min, Light 409 nm, 1100 foot candles, 10 min
[3] = 24 ppm 20 min, Light 409 nm, 1100 foot candles, 10 min
[4] = 32 ppm 20 min, Light 409 nm, 1100 foot candles, 10 min
[5] = prior treatment, with the addition of light

[O-]n1ccccc1=S.[O-]n1ccccc1=S.[Zn+2] [ZPT, zinc salt of 1-hydroxy-2-pyridinethione]
17 h growth (S. cerevisiae BY4741; 0.8 ppm, 395 nm light): 0.7205 | 17 h growth (S. cerevisiae BY4741; 0.8 ppm, 520 nm light): 1.418 | 17 h growth (S. cerevisiae BY4741; 0.8 ppm, 580 nm light): 1.332 | 17 h growth (S. cerevisiae BY4741; 0.8 ppm, Broad Spectrum light): 0.525 | 17 h growth (S. cerevisiae BY4741; 0.8 ppm, Dark): 1.5185 | 17 h growth (S. cerevisiae BY4741; 1.6 ppm, 395 nm light): 0.3435 | 17 h growth (S. cerevisiae BY4741; 1.6 ppm, 520 nm light): 1.3615 | 17 h growth (S. cerevisiae BY4741; 1.6 ppm, 580 nm light): 0.9245 | 17 h growth (S. cerevisiae BY4741; 1.6 ppm, Broad Spectrum light): 0.303 | 17 h growth (S. cerevisiae BY4741; 1.6 ppm, Dark): 1.525 | sensitivity of treated yeast to light (S. cerevisiae BY4741; ZPT-treated, LED flashlights 395, 520, 580 nm): sensitive to a 395 nm flashlight, but not two other wavelengths of light | growth, OD 600 nm (M. furfur; 4 ppm 20 min, Dark 10 min): 10.14 | growth, OD 600 nm (M. furfur; 4 ppm 20 min, Light 409 nm, 1100 foot candles, 10 min): 4.86 | growth, OD 600 nm (M. furfur; 8 ppm 20 min, Dark 10 min): 9.02 | growth, OD 600 nm (M. furfur; [1]): 3.16 | growth, OD 600 nm (M. furfur; 16 ppm 20 min, Dark 10 min): 5.72 | growth, OD 600 nm (M. furfur; [2]): 0.24 | growth inhibition (M. furfur; 16 to 32 ppm, without light exposure): some growth inhibition | growth, OD 600 nm (M. furfur; 24 ppm 20 min, Dark 10 min): 5.54 | growth, OD 600 nm (M. furfur; [3]): 2.41 | growth, OD 600 nm (M. furfur; 32 ppm 20 min, Dark 10 min): 2.61 | growth, OD 600 nm (M. furfur; [4]): 1.65 | growth inhibition (M. furfur; [5]): considerable growth inhibition

Cc1cc(CC(C)CC(C)(C)C)n(O)c(=O)c1.NCCO (stereo not shown) [Piroctone Olamine, 1-Hydroxy-4-methyl-6-(2,4,4-trimethylpentyl)-2-pyridone monoethanolamine salt]
growth, OD 600 nm (M. furfur; 8 ppm 20 min, Dark 10 min): 7.82 | growth, OD 600 nm (M. furfur; [1]): 7.35 | growth, OD 600 nm (M. furfur; 16 ppm 20 min, Dark 10 min): 7.90 | growth, OD 600 nm (M. furfur; [2]): 0.07 | growth, OD 600 nm (M. furfur; 24 ppm 20 min, Dark 10 min): 7.07 | growth, OD 600 nm (M. furfur; [3]): 0.03 | growth, OD 600 nm (M. furfur; 32 ppm 20 min, Dark 10 min): 6.76 | growth, OD 600 nm (M. furfur; [4]): 0.02 | growth, OD 600 nm (M. furfur; 48 ppm 20 min, Dark 10 min): 7.21 | growth, OD 600 nm (M. furfur; 48 ppm 20 min, Light 409 nm, 1100 foot candles, 10 min): 0.03 | growth, OD 600 nm (M. furfur; 64 ppm 20 min, Dark 10 min): 7.23 | growth, OD 600 nm (M. furfur; 64 ppm 20 min, Light 409 nm, 1100 foot candles, 10 min): 0.02 | growth inhibition (M. furfur; [5]): considerable growth inhibition | spot plated growth (score) (C. albicans cells; 6 ppm, dilution 1:2, 15 minute 409 nm light): + | spot plated growth (score) (C. albicans cells; 6 ppm, dilution 1:2, Dark): + | spot plated growth (score) (C. albicans cells; 6 ppm, dilution 1:20, 15 minute 409 nm light): + | spot plated growth (score) (C. albicans cells; 6 ppm, dilution 1:20, Dark): + | spot plated growth (score) (C. albicans cells; 6 ppm, dilution 1:200, 15 minute 409 nm light): +/− | spot plated growth (score) (C. albicans cells; 6 ppm, dilution 1:200, Dark): +/− | spot plated growth (score) (C. albicans cells; 6 ppm, dilution 1:2000, 15 minute 409 nm light): +/− | spot plated growth (score) (C. albicans cells; 6 ppm, dilution 1:2000, Dark): +/− | growth with the addition of light (C. albicans cells; 12 and 24 ppm dose, 409 nm light 15 min): complete inhibition of growth | spot plated growth (score) (C. albicans cells; 12 ppm, dilution 1:2, 15 minute 409 nm light): + | spot plated growth (score) (C. albicans cells; 12 ppm, dilution 1:2, Dark): + | spot plated growth (score) (C. albicans cells; 12 ppm, dilution 1:20, 15 minute 409 nm light): +/− | spot plated growth (score) (C. albicans cells; 12 ppm, dilution 1:20, Dark): + | spot plated growth (score) (C. albicans cells; 12 ppm, dilution 1:200, 15 minute 409 nm light): +/− | spot plated growth (score) (C. albicans cells; 12 ppm, dilution 1:200, Dark): +/− | spot plated growth (score) (C. albicans cells; 12 ppm, dilution 1:2000, 15 minute 409 nm light): − (0 to 5 colonies) | spot plated growth (score) (C. albicans cells; 12 ppm, dilution 1:2000, Dark): +/− | spot plated growth (score) (C. albicans cells; 24 ppm, dilution 1:2, 15 minute 409 nm light): + | spot plated growth (score) (C. albicans cells; 24 ppm, dilution 1:2, Dark): + | spot plated growth (score) (C. albicans cells; 24 ppm, dilution 1:20, 15 minute 409 nm light): +/− | spot plated growth (score) (C. albicans cells; 24 ppm, dilution 1:20, Dark): + | spot plated growth (score) (C. albicans cells; 24 ppm, dilution 1:200, 15 minute 409 nm light): +/− | spot plated growth (score) (C. albicans cells; 24 ppm, dilution 1:200, Dark): +/− | spot plated growth (score) (C. albicans cells; 24 ppm, dilution 1:2000, 15 minute 409 nm light): − (0 to 5 colonies) | spot plated growth (score) (C. albicans cells; 24 ppm, dilution 1:2000, Dark): +/−
